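Protocol summary: plate cells (96-well), add compound at 5 concentrations, incubate 48 h, interpolate endpoints linearly. TGI: total growth inhibition.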
How the values were obtained:
Assay in all cases: inhibition of tumour cell growth, NCI panel, 48 h
MDA-MB-231 breast = system: MDA-MB-231 breast
NCI/ADR-RES ovarian = system: NCI/ADR-RES ovarian
A498 renal = system: A498 renal
NCI-H460 lung = system: NCI-H460 lung
TK-10 renal = system: TK-10 renal
NCI-H226 lung = system: NCI-H226 lung
U251 CNS = system: U251 CNS
HT29 colon = system: HT29 colon
LOX IMVI melanoma = system: LOX IMVI melanoma
T-47D breast = system: T-47D breast
K-562 leukemia = system: K-562 leukemia
NCI-H522 lung = system: NCI-H522 lung
KM12 colon = system: KM12 colon
EKVX NSCLC = system: EKVX NSCLC
RPMI-8226 leukemia = system: RPMI-8226 leukemia
MOLT-4 leukemia = system: MOLT-4 leukemia
UACC-62 melanoma = system: UACC-62 melanoma
SF-295 CNS = system: SF-295 CNS
MDA-MB-435 = system: MDA-MB-435
OVCAR-4 ovarian = system: OVCAR-4 ovarian
SK-MEL-2 melanoma = system: SK-MEL-2 melanoma
DU-145 prostate = system: DU-145 prostate
SR leukemia = system: SR leukemia
OVCAR-3 ovarian = system: OVCAR-3 ovarian
MCF7 breast = system: MCF7 breast
CAKI-1 renal = system: CAKI-1 renal
HCT-15 colon = system: HCT-15 colon
SNB-19 CNS = system: SNB-19 CNS
HOP-62 NSCLC = system: HOP-62 NSCLC
OVCAR-5 ovarian = system: OVCAR-5 ovarian
HCC-2998 colon = system: HCC-2998 colon
UACC-257 melanoma = system: UACC-257 melanoma
M14 melanoma = system: M14 melanoma
OVCAR-8 ovarian = system: OVCAR-8 ovarian
SNB-75 CNS = system: SNB-75 CNS
HL-60(TB) leukemia = system: HL-60(TB) leukemia
SK-OV-3 ovarian = system: SK-OV-3 ovarian
SK-MEL-28 melanoma = system: SK-MEL-28 melanoma
NCI-H23 lung = system: NCI-H23 lung
UO-31 renal = system: UO-31 renal
HS 578T breast = system: HS 578T breast
CCRF-CEM leukemia = system: CCRF-CEM leukemia
SF-268 CNS = system: SF-268 CNS
MALME-3M melanoma = system: MALME-3M melanoma
PC-3 prostate = system: PC-3 prostate
HOP-92 NSCLC = system: HOP-92 NSCLC
HCT-116 colon = system: HCT-116 colon
SN12C renal = system: SN12C renal
IGROV1 ovarian = system: IGROV1 ovarian
ACHN renal = system: ACHN renal
COLO 205 colon = system: COLO 205 colon
SW-620 colon = system: SW-620 colon
786-0 renal = system: 786-0 renal
A549 NSCLC = system: A549 NSCLC
SK-MEL-5 melanoma = system: SK-MEL-5 melanoma
SF-539 CNS = system: SF-539 CNS
RXF 393 renal = system: RXF 393 renal
BT-549 breast = system: BT-549 breast
MDA-N = system: MDA-N
DMS 273 small cell lung = system: DMS 273 small cell lung
SNB-78 CNS = system: SNB-78 CNS
LXFL 529 NSCLC = system: LXFL 529 NSCLC
DMS 114 small cell lung = system: DMS 114 small cell lung
KM20L2 colon = system: KM20L2 colon

Molecule `OC(CCN1CCN(CCOC(c2ccc(F)cc2)c2ccc(F)cc2)CC1)c1ccccc1` (configuration not stated) has a TGI (MDA-MB-231 breast) of 28.8 µM, a TGI (NCI/ADR-RES ovarian) of 26.8 µM and a TGI (A498 renal) of 19.5 µM. The TGI (NCI-H460 lung) was 35.4 µM, the TGI (TK-10 renal) was 29.2 µM and the TGI (NCI-H226 lung) was 34.4 µM. For the same molecule, the TGI (U251 CNS) was 27.8 µM, the TGI (HT29 colon) was 21.6 µM and the TGI (LOX IMVI melanoma) was 28.2 µM. It also gave a TGI (T-47D breast) of 28.7 µM, a TGI (K-562 leukemia) of 26.4 µM and a TGI (NCI-H522 lung) of 28.1 µM. For the same molecule, the TGI (KM12 colon) was 44 µM, the TGI (EKVX NSCLC) was 26.1 µM and the TGI (RPMI-8226 leukemia) was 43 µM. For the same molecule, the TGI (MOLT-4 leukemia) was 29.1 µM, the TGI (UACC-62 melanoma) was 28.2 µM and the TGI (SF-295 CNS) was 34.6 µM. It also gave a TGI (MDA-MB-435) of 38.9 µM, a TGI (OVCAR-4 ovarian) of 39.4 µM and a TGI (SK-MEL-2 melanoma) of 30.1 µM. It also gave a TGI (DU-145 prostate) of 32.8 µM, a TGI (SR leukemia) of 33.3 µM and a TGI (OVCAR-3 ovarian) of 31.4 µM. It also gave a TGI (MCF7 breast) of 35.6 µM, a TGI (CAKI-1 renal) of 33.6 µM and a TGI (HCT-15 colon) of 27.1 µM. It also gave a TGI (SNB-19 CNS) of 30.7 µM, a TGI (HOP-62 NSCLC) of 36.5 µM and a TGI (OVCAR-5 ovarian) of 27.8 µM. For the same molecule, the TGI (HCC-2998 colon) was 12.4 µM, the TGI (UACC-257 melanoma) was 42.5 µM and the TGI (M14 melanoma) was 28 µM. It also gave a TGI (OVCAR-8 ovarian) of 25.7 µM, a TGI (SNB-75 CNS) of 27.5 µM and a TGI (HL-60(TB) leukemia) of 37.3 µM. It also gave a TGI (SK-OV-3 ovarian) of 32.5 µM, a TGI (SK-MEL-28 melanoma) of 35.7 µM and a TGI (NCI-H23 lung) of 31.1 µM. The TGI (UO-31 renal) was 11.2 µM, the TGI (HS 578T breast) was 37.3 µM and the TGI (CCRF-CEM leukemia) was 45.6 µM. The TGI (SF-268 CNS) was 31.2 µM, the TGI (MALME-3M melanoma) was 26.8 µM and the TGI (PC-3 prostate) was 26.7 µM. It also gave a TGI (HOP-92 NSCLC) of 23.8 µM, a TGI (HCT-116 colon) of 26.2 µM and a TGI (SN12C renal) of 29.4 µM. It also gave a TGI (IGROV1 ovarian) of 27.1 µM, a TGI (ACHN renal) of 25.8 µM and a TGI (COLO 205 colon) of 18.2 µM. For the same molecule, the TGI (SW-620 colon) was 57.4 µM, the TGI (786-0 renal) was 25.6 µM and the TGI (A549 NSCLC) was 31 µM. For the same molecule, the TGI (SK-MEL-5 melanoma) was 21 µM, the TGI (SF-539 CNS) was 25.6 µM and the TGI (RXF 393 renal) was 24.1 µM. The TGI (BT-549 breast) was 27.1 µM and the TGI (MDA-N) was 28.5 µM.
With `COC(=O)c1cc(Cl)ccc1NC(=O)C1CCCCC1` the TGI (TK-10 renal) was > 100 µM, the TGI (NCI-H226 lung) was > 100 µM and the TGI (U251 CNS) was > 100 µM. The TGI (HT29 colon) was > 100 µM, the TGI (K-562 leukemia) was > 100 µM and the TGI (KM12 colon) was > 100 µM. The TGI (EKVX NSCLC) was > 100 µM, the TGI (RPMI-8226 leukemia) was > 100 µM and the TGI (MOLT-4 leukemia) was > 100 µM. For the same molecule, the TGI (SF-295 CNS) was > 100 µM, the TGI (SK-MEL-2 melanoma) was > 100 µM and the TGI (DMS 273 small cell lung) was > 100 µM. For the same molecule, the TGI (SR leukemia) was > 100 µM, the TGI (HCT-15 colon) was > 100 µM and the TGI (SNB-19 CNS) was > 100 µM. For the same molecule, the TGI (OVCAR-5 ovarian) was > 100 µM, the TGI (HCC-2998 colon) was > 100 µM and the TGI (UACC-257 melanoma) was > 100 µM. For the same molecule, the TGI (OVCAR-8 ovarian) was > 100 µM, the TGI (SNB-78 CNS) was > 100 µM and the TGI (LXFL 529 NSCLC) was > 100 µM. The TGI (SK-MEL-28 melanoma) was > 100 µM, the TGI (DMS 114 small cell lung) was > 100 µM and the TGI (NCI-H23 lung) was > 100 µM. The TGI (UO-31 renal) was > 100 µM, the TGI (SF-268 CNS) was > 100 µM and the TGI (MALME-3M melanoma) was > 100 µM. The TGI (HOP-92 NSCLC) was > 100 µM, the TGI (HCT-116 colon) was > 100 µM and the TGI (KM20L2 colon) was > 100 µM. For the same molecule, the TGI (SN12C renal) was > 100 µM, the TGI (ACHN renal) was > 100 µM and the TGI (COLO 205 colon) was > 100 µM. The TGI (SW-620 colon) was > 100 µM, the TGI (786-0 renal) was > 100 µM and the TGI (A549 NSCLC) was > 100 µM. For the same molecule, the TGI (SF-539 CNS) was > 100 µM and the TGI (RXF 393 renal) was > 100 µM.
